# In US7145058B2, “Efficient method of preventing growth of microbial genetic transformant after transformation” (Council of Scientific and Industrial Research, priority 2002, dated 2006):
# Legend:
# [1] = test system: Agrobacterium tumefaciens; assay: Growth curve of Agrobacterium tumefaciens in liquid Yeast Mannitol Broth, optical density at 600 nm; format: cell-based; settings: different concentrations of D-catechin of Acacia species
# Protocol: The growth of bacteria is measured spectrophotometrically. The variation of growth is measured for up to 48 hours at an interval of 6 hours each.
# Two strains of Agrobacterium tumefaciens viz. EHA105 (mild) and GV2260 (virulent) harbouring the antibiotic resistance genes for kanamycin or hygromycin and the reporter gus gene were inoculated from mother cultures of respective strains into 10–30 ml liquid modified Yeast Mannitol Broth with kanamycin or hygromycin. The cultures were incubated for 12–16 hr at 25–30° C. and 150–200 rpm in dark and harvested at 0.6–0.8 optical density at 600 nm for 1×10^9 cells/ml during log phase of bacterial growth. […] Measurement of optical density at 600 nm at regular 6 hr intervals for 0–48 hr and the mean of three readings were plotted for development of the growth curve.
# Crude mixture of catechins as well as caffeine at concentrations of 2–600 μg/ml were added to fresh cultures of Agrobacterium tumefaciens and maintained at 25–30° C. in dark at 150–200 rpm for 48 hr. The optical density was again measured at regular interval of 6 hr each for 0–48 hr for the plotting of the mean of the three readings in a linear graph in order to determine the effect of the crude mixture of catechins as well as caffeine at concentrations of 2–600 μg/ml on fresh cultures of Agrobacterium tumefaciens.
# [2] = test system: Sitka spruce somatic embryos; settings: cited from earlier work
# guar tissues = settings: cited from earlier work
# [3] = test system: cultured tissues of Vitis; settings: cited from earlier work
# Agrobacterium = settings: carbenicillin, cefotaxime, ticarcillin for Brassica, Solanum, Rubus respectively; cited from earlier work
# [4] = test system: A. tumefaciens, supervirulent strain EHA101 (pEHA101/pGT100); settings: 100 μg/ml, singly or in combination, 52 days in regeneration and elongation media; cited from earlier work
Structure (SMILES),phytotoxicity to guar explants (guar tissues),elimination of residual Agrobacterium (Agrobacterium),elimination of A. tumefaciens from the explants [4],other results
Oc1cc(O)c2c(c1)OC(c1ccc(O)c(O)c1)C(O)C2 [D-catechin],–,–,–,growth of Agrobacterium tumefaciens [1]: promote and not inhibit the growth
CC1(C)S[C@@H]2[C@H](NC(=O)C(C(=O)O)c3ccccc3)C(=O)N2[C@H]1C(=O)O (some centres unmarked) [carbenicillin],phytotoxic,none of the antibiotics tested succeeded in eliminating Agrobacterium,did not eliminate,development of mature somatic embryos [2]: prevented the development of mature somatic embryos; reduction of early stage embryos [2]: > 90%; reduction of tissue growth [2]: 50%; effect on plant regeneration [3]: inhibitory effects on plant regeneration
CO/N=C(\C(=O)N[C@@H]1C(=O)N2C(C(=O)O)=C(COC(C)=O)CS[C@H]12)c1csc(N)n1 [cefotaxime],phytotoxic,none of the antibiotics tested succeeded in eliminating Agrobacterium,did not eliminate,effect on overall tissue growth [2]: no effect
CO[C@@]1(NC(=O)Cc2cccs2)C(=O)N2C(C(=O)O)=C(COC(N)=O)CS[C@@H]21 [cefoxitin],–,–,did not eliminate,–
"CC1(C)S[C@@H]2[C@H](NC(=O)[C@H](C(=O)O)c3ccsc3)C(=O)N2[C@H]1C(=O)O [ticaracillin, ticarcillin]",–,none of the antibiotics tested succeeded in eliminating Agrobacterium,–,–
